Tests used:
[1] = target: T1, ATP-dependent translocase ABCB1 (Homo sapiens, UniProt P08183); assay: Inhibition of human Pgp in A2780 cells after 30 mins by calcein AM assay; format: cell-based
[2] = target: T1, ATP-dependent translocase ABCB1; assay: Inhibition of human Pgp in A2780 cells after 30 mins by Hoechst 33342 assay; format: cell-based
[3] = target: ATP-dependent translocase ABCB1 (Mus musculus, UniProt P06795); assay: Inhibition of mouse Pgp in EMT6/AR1.0 cells after 1 hr by daunorubicin accumulation assay; format: cell-based
ATP-dependent translocase ABCB1 (Mus musculus, UniProt P06795), sequence (P06795 whole entry): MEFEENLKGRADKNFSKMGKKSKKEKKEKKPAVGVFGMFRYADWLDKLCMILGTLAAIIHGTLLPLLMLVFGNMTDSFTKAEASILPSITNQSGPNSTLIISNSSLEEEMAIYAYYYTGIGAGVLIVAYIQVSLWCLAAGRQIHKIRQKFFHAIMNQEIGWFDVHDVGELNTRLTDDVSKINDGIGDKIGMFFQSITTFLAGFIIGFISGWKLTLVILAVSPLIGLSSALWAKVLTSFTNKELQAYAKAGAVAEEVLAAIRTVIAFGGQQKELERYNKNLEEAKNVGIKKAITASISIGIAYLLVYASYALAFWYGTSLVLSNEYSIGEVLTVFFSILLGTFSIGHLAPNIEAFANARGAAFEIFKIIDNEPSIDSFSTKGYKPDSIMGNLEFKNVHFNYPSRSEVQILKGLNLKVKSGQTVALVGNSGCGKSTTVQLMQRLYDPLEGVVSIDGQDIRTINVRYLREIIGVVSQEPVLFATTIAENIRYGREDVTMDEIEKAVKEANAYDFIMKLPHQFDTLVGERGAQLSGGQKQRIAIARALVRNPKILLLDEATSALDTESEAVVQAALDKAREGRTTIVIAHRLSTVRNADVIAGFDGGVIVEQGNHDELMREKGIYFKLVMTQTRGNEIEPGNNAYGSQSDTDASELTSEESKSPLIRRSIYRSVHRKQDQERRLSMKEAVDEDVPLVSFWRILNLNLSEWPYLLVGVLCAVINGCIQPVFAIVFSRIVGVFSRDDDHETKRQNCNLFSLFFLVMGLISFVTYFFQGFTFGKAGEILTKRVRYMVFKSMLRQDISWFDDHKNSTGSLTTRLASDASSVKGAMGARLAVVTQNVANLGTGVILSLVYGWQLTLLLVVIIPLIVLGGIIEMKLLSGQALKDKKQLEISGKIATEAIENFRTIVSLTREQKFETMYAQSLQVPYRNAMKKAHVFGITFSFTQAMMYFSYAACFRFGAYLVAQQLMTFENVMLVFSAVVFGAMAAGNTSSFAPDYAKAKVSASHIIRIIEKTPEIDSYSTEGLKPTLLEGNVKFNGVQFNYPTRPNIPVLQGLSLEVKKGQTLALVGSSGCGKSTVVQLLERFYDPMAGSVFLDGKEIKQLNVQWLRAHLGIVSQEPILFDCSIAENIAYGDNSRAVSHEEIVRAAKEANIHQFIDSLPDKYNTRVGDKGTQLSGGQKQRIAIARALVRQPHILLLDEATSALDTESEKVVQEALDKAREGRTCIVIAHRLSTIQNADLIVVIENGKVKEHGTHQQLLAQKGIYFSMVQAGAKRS

[4] = target: T1, ATP-dependent translocase ABCB1
Description: Inhibition of Pgp by daunorubicin accumulation assay

T1 sequence (P08183 whole entry): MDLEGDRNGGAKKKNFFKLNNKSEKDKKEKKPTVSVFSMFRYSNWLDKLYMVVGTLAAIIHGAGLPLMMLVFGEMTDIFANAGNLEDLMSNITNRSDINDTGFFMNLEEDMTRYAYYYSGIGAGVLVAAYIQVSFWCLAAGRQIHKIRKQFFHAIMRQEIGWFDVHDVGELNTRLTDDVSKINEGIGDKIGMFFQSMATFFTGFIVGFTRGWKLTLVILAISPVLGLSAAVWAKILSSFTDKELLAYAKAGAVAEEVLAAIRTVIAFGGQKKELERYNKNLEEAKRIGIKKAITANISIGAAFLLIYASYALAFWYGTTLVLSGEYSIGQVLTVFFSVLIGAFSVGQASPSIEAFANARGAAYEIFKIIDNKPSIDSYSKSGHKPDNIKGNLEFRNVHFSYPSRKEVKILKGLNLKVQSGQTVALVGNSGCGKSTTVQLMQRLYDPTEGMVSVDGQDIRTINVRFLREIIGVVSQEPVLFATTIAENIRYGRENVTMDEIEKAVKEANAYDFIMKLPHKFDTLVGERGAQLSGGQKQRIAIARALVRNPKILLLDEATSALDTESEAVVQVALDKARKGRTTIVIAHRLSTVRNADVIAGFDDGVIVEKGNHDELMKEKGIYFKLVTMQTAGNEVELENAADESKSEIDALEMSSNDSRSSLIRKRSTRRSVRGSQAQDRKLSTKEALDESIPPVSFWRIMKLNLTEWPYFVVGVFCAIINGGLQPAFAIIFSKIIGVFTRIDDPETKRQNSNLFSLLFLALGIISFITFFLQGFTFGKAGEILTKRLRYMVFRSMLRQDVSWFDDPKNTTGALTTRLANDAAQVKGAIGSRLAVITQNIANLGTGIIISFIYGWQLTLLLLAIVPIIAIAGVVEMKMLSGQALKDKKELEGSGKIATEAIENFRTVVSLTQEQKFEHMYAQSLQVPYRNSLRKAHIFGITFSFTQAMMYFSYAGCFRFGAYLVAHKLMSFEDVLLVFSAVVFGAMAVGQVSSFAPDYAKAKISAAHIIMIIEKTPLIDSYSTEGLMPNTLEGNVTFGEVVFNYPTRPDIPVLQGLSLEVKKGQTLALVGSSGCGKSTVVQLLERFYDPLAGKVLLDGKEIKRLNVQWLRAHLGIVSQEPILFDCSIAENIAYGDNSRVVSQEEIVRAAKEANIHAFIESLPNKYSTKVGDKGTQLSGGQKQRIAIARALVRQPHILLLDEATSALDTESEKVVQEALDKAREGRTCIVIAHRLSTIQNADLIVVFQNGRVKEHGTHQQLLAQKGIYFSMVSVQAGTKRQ

| Compound | IC50 [1] | IC50 [2] | IC50 [3] | IC50 [4] |
| --- | --- | --- | --- | --- |
| O=C(Nc1ccc(CCN2CCc3ccccc3C2)cc1)c1ccccc1[N+](=O)[O-] | 12300 nM | 13500 nM | – | – |
| COc1cc2c(cc1OC)CN(CCc1ccc(NC(=O)c3cnc4ccccc4n3)cc1)CC2 | 490 nM | 209 nM | – | – |
| COc1cc2c(cc1OC)CN(CCc1ccc(NC(=O)c3ccc4ncccc4c3)cc1)CC2 | 724 nM | 741 nM | – | – |
| Nc1ccc(C(=O)Nc2ccc(CCN3CCc4ccccc4C3)cc2)cc1 | 13500 nM | 4170 nM | – | – |
| COc1cc2c(cc1OC)CN(CCc1ccc(NC(=O)c3ccc4ccccc4c3)cc1)CC2 | 776 nM | 776 nM | – | – |
| COc1cc2c(cc1OC)CN(CCc1ccc(NC(=O)c3ccc(N)cc3)cc1)CC2 | 4070 nM | 7080 nM | – | – |
| COc1cc2c(cc1OC)CN(CCc1ccc(NC(=O)c3cccnc3)cc1)CC2 | 4170 nM | 3160 nM | – | – |
| COc1cc2c(cc1OC)CN(CCc1ccc(NC(=O)c3ccc([N+](=O)[O-])cc3)cc1)CC2 | 1100 nM | 1380 nM | – | – |
| COc1cc2c(cc1OC)CN(CCc1ccc(NC(=O)c3ccccc3N)cc1)CC2 | 9120 nM | 11200 nM | – | – |
| COc1cc2c(cc1OC)CN(CCc1ccc(NC(=O)c3cc(OC)c(OC)cc3NC(=O)c3cnc4ccccc4c3)cc1)CC2 | – | 126 nM | 64 nM | 38 nM |
| COc1cc2c(cc1OC)CN(CCc1ccc(NC(=O)c3cc4ccccc4cn3)cc1)CC2 | 851 nM | 776 nM | – | – |
| O=C(Nc1ccc(CCN2CCc3ccccc3C2)cc1)c1ccc([N+](=O)[O-])cc1 | 4470 nM | 5010 nM | – | – |
| COc1cc2c(cc1OC)CN(CCc1ccc(NC(=O)c3ccnc4ccccc34)cc1)CC2 | 2820 nM | 2240 nM | – | – |
| COc1cc2c(cc1OC)CN(CCc1ccc(NC(=O)c3cnc4ccccc4c3)cc1)CC2 | 646 nM | 145 nM | – | – |
| COc1cc2c(cc1OC)CN(CCc1ccc(NC(=O)c3cccc4ccccc34)cc1)CC2 | 1410 nM | 1860 nM | – | – |
| COc1cc2c(cc1OC)CN(CCc1ccc(NC(=O)c3ccccc3NC(=O)c3ccc(C)cc3)cc1)CC2 | 692 nM | 525 nM | 260 nM | – |
| COc1cc2c(cc1OC)CN(CCc1ccc(NC(=O)c3ccccc3[N+](=O)[O-])cc1)CC2 | 4790 nM | 5500 nM | – | – |
| COc1cc2c(cc1OC)CN(CCc1ccc(NC(=O)c3ccccc3Br)cc1)CC2 | 4270 nM | 3470 nM | – | – |
| COc1cc2c(cc1OC)CN(CCc1ccc(NC(=O)c3ccccc3NC(=O)c3ccccc3)cc1)CC2 | 724 nM | – | 300 nM | 250 nM |
| COc1cc2c(cc1OC)CN(CCc1ccc(NC(=O)c3cccc(Br)c3)cc1)CC2 | 2290 nM | 3240 nM | – | – |
| COc1cc2c(cc1OC)CN(CCc1ccc(NC(=O)c3ccccc3NC(=O)c3cnc4ccccc4c3)cc1)CC2 | 240 nM | 166 nM | 50 nM | 87 nM |
| O=C(Nc1ccccc1C(=O)Nc1ccc(CCN2CCc3ccccc3C2)cc1)c1cnc2ccccc2c1 | 447 nM | – | 320 nM | – |

From ChEMBL document CHEMBL1144049, “Functional assay and structure-activity relationships of new third-generation P-glycoprotein inhibitors” (Bioorg Med Chem, 2008)
